In the supplement of paper PMC10307832:

Key:
Assay in all cases: relative viability (nuclei count vs DMSO), 5 days (fraction); higher = more cells survive
[1] = compound: CN(C)C(=N)NC(=N)N [Metformin]
Summary of the method: (§1)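 On vehicle-anchored 1536-well plates, lung cancer cell lines held overnight at 37 °C were pinned with five library-drug doses (not always all listed) spaced by √10. With no medium change over 5 days, they were then fixed, permeabilised and Hoechst-stained in one step and imaged at 4×. MetaXpress counted nuclei, and viability is the median across plates of treated-well over vehicle-well nuclei. Acceptance needed control CV below 25% and at least one doubling.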

[2] = compound: N#CC1(c2ccc(NC(=O)c3cccnc3NCc3ccncc3)cc2)CCCC1 [Apatinib]
Summary of the method: as §1

[3] = compound: N#CC1(c2ccc(NC(=O)c3cccnc3NCc3ccncc3)cc2)CCCC1 [Apatinib] + Nc1nc2[nH]cc(CCc3ccc(C(=O)N[C@@H](CCC(=O)O)C(=O)O)cc3)c2c(=O)[nH]1 [Pemetrexed] (partner 0.2 µM)
Summary of the method: (§2)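 Relative viability is defined as nuclei in treated wells over nuclei in vehicle wells. Duplicate plates were run and medians reported. Lung cancer cell lines in 1536-well plates were dosed by pin tool one day after seeding, with one drug or with a fixed anchor-drug dose plus five library-drug doses (not always all listed) in √10 steps, and nuclei were counted after 5 days.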

[4] = compound: CN(C)C(=N)NC(=N)N [Metformin] + COc1cccc2cc(-c3nc([C@H]4CC[C@H](C(=O)O)CC4)n4ncnc(N)c34)[nH]c12 [OSI-027] (partner 0.5 µM)
Summary of the method: as §2

Cell Line | relative viability ([1]; 10 µM) | relative viability ([1]; 31.62 µM) | relative viability ([1]; 100 µM) | relative viability ([1]; 316.23 µM) | relative viability ([1]; 1000 µM) | relative viability ([2]; 0.08 µM) | relative viability ([2]; 0.253 µM) | relative viability ([2]; 0.8 µM) | relative viability ([2]; 2.53 µM) | relative viability ([2]; 8 µM) | relative viability ([3]; first compound 0.08 µM) | relative viability ([3]; first compound 0.253 µM) | relative viability ([3]; first compound 0.8 µM) | relative viability ([3]; first compound 2.53 µM) | relative viability ([3]; first compound 8 µM) | relative viability ([4]; first compound 10 µM) | relative viability ([4]; first compound 31.62 µM) | relative viability ([4]; first compound 100 µM) | relative viability ([4]; first compound 316.23 µM) | relative viability ([4]; first compound 1000 µM)
SK-MES-1 | 0.9 | 0.875 | 0.952 | 0.826 | 0.884 | 1.02 | 1.06 | 0.978 | 0.933 | 0.884 | 0.976 | 0.915 | 0.937 | 0.757 | 0.568 | 0.446 | 0.551 | 0.532 | 0.432 | 0.454
NCI-H2085 | 0.977 | 0.939 | 0.956 | 0.977 | 0.991 | 0.986 | 0.979 | 0.953 | 0.92 | 0.971 | 0.949 | 0.777 | 0.876 | 0.823 | 0.782 | 0.649 | 0.54 | 0.721 | 0.718 | 0.703
NCI-H441 | – | 0.761 | 0.985 | 0.667 | 0.944 | 1.08 | 1.05 | 0.837 | 0.864 | 0.743 | 0.302 | 0.274 | 0.261 | 0.205 | 0.192 | – | 0.665 | 0.519 | 0.393 | 0.46
PC-3 [JPC-3] | 0.898 | 0.986 | 1.01 | 0.987 | 1.02 | 1.06 | 0.983 | 0.915 | 0.955 | 0.985 | – | 1.05 | 1.05 | 0.726 | 0.807 | 0.599 | 0.635 | 0.638 | 0.615 | 0.722
NCI-H1944 | 0.845 | 1.1 | 0.954 | 0.882 | 1.04 | 0.948 | 0.921 | 0.886 | 0.791 | 0.921 | 0.687 | 0.562 | 0.501 | 0.456 | 0.51 | 0.428 | 0.401 | 0.402 | 0.425 | 0.455
CAL-12T | 1.02 | 1.19 | 0.938 | 1.02 | 0.968 | 1.08 | 0.99 | 1 | 0.91 | 0.828 | 1.38 | 1.25 | 1.1 | 0.897 | 0.917 | 0.678 | 0.94 | 0.581 | 0.39 | 0.605
